The values that follow come from patent US8178497B2, “Method of treating HIV in drug resistant non plasma viral reservoirs with monomeric DAPTA” (Rapid Pharmaceuticals AG, priority 2007, dated 2012).

The test system of data set [1] is CXCR4-using (X4) strains, HIV-1 IIIB. In words: p24 antigen production in HIV-infected M/M (CXCR4-using strain). The class given is cell-based. The following applies: M/M infected by HIV-1 IIIB; data not shown. As to the method: (§1) Viral replication and production in HIV-infected M/M treated with DAPTA was assessed 14 and 21 days after infection for p24 antigen production.

Data set [2] has as its system HIV. To be noted: frozen stored plasma samples; p=.037; cited from earlier work.
In the next data set the test system is HIV-1. The following applies: 18 hours postinfection, vs not-treated cells. As to the method: Eighteen hours postinfection, genomic DNA was extracted and two-fold dilution of cell equivalents (range 1×10^6-1.25×10^5) were amplified in an inverse/nested PCR specific for a conserved gag region of the viral genome. Semi-quantitative analyses of HIV-1 DNA in M/M were performed by comparison of DNA amplification products from infected cells, standardized by PCR for β-actin, to standards of amplified U1 DNA copies and cell numbers. The UN-SCAN IT-gel software (Silk Scientific Inc.) was used to determine band densities (FIG. 3A).

Data set [3] concerns HIV. To be noted: main endpoint of the small trial; cited from earlier work.
In data set [4] the target is T1, CCR5 (Homo sapiens, UniProt P51681). The data set is described as follows: competition between CCR5-FITC antibody and DAPTA in M/M, flow cytometry. The class given is cell-based. The arrangement: endogenous in cells; host or cells: human primary monocyte/macrophages (M/M). The text has this:
To confirm that monomeric DAPTA binding is specific for CCR5, a competition experiment between CCR5-FITC antibody and DAPTA in M/M was done. […] Treatment with monomeric DAPTA reduced CCR % expression to 9% with 10^−12 M DAPTA, compared with 35% of mock-treated M/M (FIG. 2) (p≦0.001).

For data set [5], the system named is HIV. To be noted: doses as high as 10^−7 M; cited from earlier work.
The test system of data set [6] is CCR5-using HIV-1 strain, 81A. The data set is described as follows: p24 antigen production in HIV-infected M/M (CCR5-using strain). The class given is cell-based. The protocol: as §1
For data set [7], the target named is T1, CCR5. In words: CCR5 expression on SK-N-SH neuronal cells, 2D7 mAb staining. The class given is cell-based. More on the design: CCR5 expression in these differentiated cells is limited and further reduced in the presence of DAPTA; endogenous in cells; host or cells: SK-N-SH (differentiated with retinoic acid). The text has this:
To assess CCR5 expression on surface of neuronal cell lines, SK-N-SH were stained with 2D7 mAb in presence or in absence of DAPTA (at different doses) and TAK-779. SK-N-SH line has the potential of differentiating to neural cells in the presence of retinoic acid, and it has been used as a model of primary neurons.

The test system of data set [8] is SK-N-SH cells exposed to R5 HIV-1 strain BaL. In words: apoptosis of differentiated SK-N-SH cells exposed to HIV-1 BaL, FACS. The class given is cell-based. The following applies: for apoptosis, share of SK-N-SH cells: day 5, 60% with HIV-1BaL alone. The text has this:
Finally, we exposed differentiated SK-N-SH cells to the R5 HIV-1 strain BaL, in the presence or absence of monomeric DAPTA, and assessed neuronal apoptosis. […] To compare the anti-apoptotic effect of monomeric DAPTA with other CCR5-binding molecules, we also tested the CCR5 antagonist TAK-779.

Data set [9] in a line: aggregation of peptide in solution. The class given is physicochemical. The source says:
These marginal clinical benefits were inexplicable in the context of the many successful in vitro studies and an explanation was sought. […] Therefore reduction to practice required that the non-obvious formation of multimers must be remedied for considerations of both patient safety and drug efficacy.

Where two headings read alike, the source gives them in different places.

T1 sequence (P51681 whole entry): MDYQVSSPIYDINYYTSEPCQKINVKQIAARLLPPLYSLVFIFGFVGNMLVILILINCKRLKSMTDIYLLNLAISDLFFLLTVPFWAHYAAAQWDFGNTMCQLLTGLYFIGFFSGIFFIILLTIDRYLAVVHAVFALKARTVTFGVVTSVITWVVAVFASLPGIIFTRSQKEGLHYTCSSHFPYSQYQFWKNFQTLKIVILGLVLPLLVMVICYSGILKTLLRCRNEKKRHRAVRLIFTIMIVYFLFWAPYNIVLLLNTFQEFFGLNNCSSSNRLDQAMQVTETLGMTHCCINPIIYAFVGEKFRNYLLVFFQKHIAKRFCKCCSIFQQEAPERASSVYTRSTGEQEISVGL

With Dala1-peptide T-amide [DAPTA], the “effect on HIV-1 p24 antigen production” value in data set [1] was “no effect”. Besides, the “reduction in viral load” value with HIV [2] is 0.54 log 10. Besides, the entries for the “decline of HIV-1 DNA per 2.5×10^5 cells” value in the data set on HIV-1 (10^−7 M) and in the data set with HIV-1 (10^−9 M) were 64% and 70%, respectively. The plasma viral load result in the data set on HIV [3] was “failing to reduce plasma viral load”. On CCR5 [4] (10^−12 M), the “inhibition of CCR5-binding, maximum” value amounted to 73%. For the same compound, the “CCR5 expression (CCR5+ M/M)” value on CCR5 [4] (10^−12 M, mock-treated 35%) was determined as 9%. In addition, the “CCR5+ positive M/M” value at CCR5 [4] (DAPTA treated M/M, mock-treated 35%) worked out at 20%. Moreover, the “inhibition of CCR5-binding” value on CCR5 [4] (overall, several DAPTA doses) was “about 43%”. Moreover, the “antiviral effects (Sodroski)” value in the data set on HIV [5] is “failed to find antiviral effects”. In [6] (HIV-1 81A, doses as low as 10^−14 M, 14 and 21 days after infection), the “reduction of p24 gag antigen production of control M/M cultures” value was approximately 80%. Moreover, the “effective dose lower than described in earlier reports (enhanced in vitro potency)” value in data set [6] (monomeric formulation vs earlier reports) is recorded as 100-100,000 fold. Moreover, the “inhibition of CCR5 expression” value on CCR5 [7] (10^−12M, vs unexposed SK-N-SH) worked out at 72%; at CCR5 [7] (10^−13M, vs unexposed SK-N-SH), 68.5%. Also, the “apoptosis, share of SK-N-SH cells” value in data set [8] (10^−3M) is 28%; in [8] (10^−12M) it was 26%. In [9], the aggregation in solution entry is given as “quickly formed aggreagates in solution”.
On to `Cc1ccc(-c2ccc3c(c2)C=C(C(=O)Nc2ccc(C[N+](C)(C)C4CCOCC4)cc2)CCC3)cc1.[Cl-]` [TAK-779, reference compound], for which the “inhibition of CCR5 expression” value at CCR5 [7] (1.8×10^−6 M) is “about 61%”. The compound further displayed an inhibition of apoptosis in data set [8] (1.8×10^−6 M, vs cells not treated) of 30%.
